In patent US20240391899A1, “POTENT AND SELECTIVE INHIBITORS OF IRAK4” (Dana-Farber Cancer Institute, Inc., priority 2021, published 2024):

How the values were obtained:
IRAK1 = molecular target: T1, IRAK1 (Homo sapiens, UniProt P51617); assay: IRAK1 enzymatic assay (Adapta Universal Kinase Assay, ThermoFisher); assay type: biochemical; details: 60 minutes at room temperature
T1 construct: purchased ThermoFisher
Procedure: To measure the IC50 values of the compounds herein against IRAK1, the Adapta Universal Kinase Assay (ThermoFisher) was used. Briefly, 100 nL of different concentrations of the compounds in 100% DMSO were added to each well of a 384-well plate (Corning Cat. #4512). 2.4 μL of 30 mM HEPES, 2.5 μL of 4×ATP solution (in water), and 5 μL of 2×IRAK1/Histone H3 (1-20) peptide mixture (prepared in 50 mM HEPES pH 7.5, 0.01% BRIJ-35, 10 mM MgCl2, 1 mM EGTA) were added to each well. The plate was shaken for 30 seconds and centrifuged for 1 minute at 1000×g. The plate was then incubated at room temperature for 60 minutes. 5 μL of Detection Mix was added to each well. The plate was shaken for 30 seconds and centrifuged for 1 minute at 1000×g. The plate was then incubated at room temperature for 60 minutes. The plate was subsequently read on a fluorescence plate reader, and the emissions ratio was calculated to determine the ratio of ATP to ADP. Emissions Ratio=AF647 Emission (665 nm)/Europium Emission (615 nm).

IRAK4 = molecular target: T2, IRAK4 (Homo sapiens, UniProt Q9NWZ3); assay: IRAK4 enzymatic assay (Z'-LYTE, ThermoFisher); assay type: biochemical; details: 60 minutes at room temperature
T2 construct: purchased ThermoFisher
T2 sequence (Q9NWZ3 1-460): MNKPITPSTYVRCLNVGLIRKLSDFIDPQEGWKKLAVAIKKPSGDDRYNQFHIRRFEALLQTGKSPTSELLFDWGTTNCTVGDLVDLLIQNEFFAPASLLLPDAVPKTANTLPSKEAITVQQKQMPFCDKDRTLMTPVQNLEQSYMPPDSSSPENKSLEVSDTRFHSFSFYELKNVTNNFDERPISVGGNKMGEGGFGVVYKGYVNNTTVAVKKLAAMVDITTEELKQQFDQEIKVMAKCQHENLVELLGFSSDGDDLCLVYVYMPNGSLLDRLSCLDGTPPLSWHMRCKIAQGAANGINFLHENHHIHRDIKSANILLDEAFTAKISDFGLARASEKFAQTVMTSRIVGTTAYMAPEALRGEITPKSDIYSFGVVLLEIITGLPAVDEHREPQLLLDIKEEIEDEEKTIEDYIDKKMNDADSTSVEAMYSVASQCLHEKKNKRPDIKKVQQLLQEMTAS
Procedure: To measure the IC50 values of compounds herein against IRAK4, a Z′-LYTE assay (ThermoFisher) was used. Briefly, 2.5 μL of different concentrations of the compounds in 1% DMSO were added to 2.4 μL kinase buffer (50 mM HEPES pH 7.5, 0.01% BRIJ-35, 10 mM MgCl2, 1 mM EGTA) in each well of a 384-well plate (Corning Cat. #3676). 5 μL of 2×IRAK4/Ser/Thr 07 mixture (prepared in 50 mM HEPES pH 7.5, 0.01% BRIJ-35, 10 mM MnCl2, 2 mM DTT, and 0.02% NaN3) and 2.5 μL of 4×ATP solution (4×ATP, 50 mM HEPES, pH 7.5, 0.01% BRIJ-35, 10 mM MgCl2, 1 mM EGTA) were added to each well. The plate was shaken for 30 seconds, and then incubated at room temperature for 60 minutes. 5 μL of a 1:100000 dilution of Development Reagent A was added to each well. The plate was shaken for 30 seconds and incubated for 60 minutes at room temperature. The plate was subsequently read on a fluorescence plate reader, and the emissions ratio was calculated to determine the ratio of Ser/Thr 07 phosphorylated by the reaction. Emissions Ratio=Coumarin Emission (443 nm)/Flourescein Emission (520 nm).

T1 sequence (P51617 whole entry): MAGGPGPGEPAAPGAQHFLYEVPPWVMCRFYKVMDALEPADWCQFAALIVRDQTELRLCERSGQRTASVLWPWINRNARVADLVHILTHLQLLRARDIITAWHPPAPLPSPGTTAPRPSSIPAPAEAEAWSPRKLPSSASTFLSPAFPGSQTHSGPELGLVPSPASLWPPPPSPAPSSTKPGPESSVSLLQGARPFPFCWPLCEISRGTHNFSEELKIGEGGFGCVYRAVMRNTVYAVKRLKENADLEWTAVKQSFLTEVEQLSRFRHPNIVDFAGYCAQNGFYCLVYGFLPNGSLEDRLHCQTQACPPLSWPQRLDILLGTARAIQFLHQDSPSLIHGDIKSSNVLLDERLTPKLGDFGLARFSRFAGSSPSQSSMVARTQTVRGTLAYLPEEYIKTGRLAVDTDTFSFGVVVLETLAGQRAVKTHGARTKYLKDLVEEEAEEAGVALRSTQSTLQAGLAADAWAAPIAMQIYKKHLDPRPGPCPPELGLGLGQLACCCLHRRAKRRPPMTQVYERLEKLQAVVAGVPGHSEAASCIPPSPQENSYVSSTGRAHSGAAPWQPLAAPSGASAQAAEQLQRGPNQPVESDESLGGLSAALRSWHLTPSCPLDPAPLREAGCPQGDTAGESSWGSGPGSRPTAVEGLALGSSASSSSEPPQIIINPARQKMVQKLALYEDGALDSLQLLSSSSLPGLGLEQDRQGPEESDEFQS

Row | SMILES | IC50 (IRAK1) [nM] | IC50 (IRAK4) [nM]
1 | Cc1ccc(-n2nc(C3CCN(C(C)C)CC3)cc2NC(=O)c2cccc(-c3cn[nH]c3)n2)nc1 [Compound 002, N-(3-(1-isopropylpiperidin-4-yl)-1-(5-methylpyridin-2-yl)-1H-pyrazol-5-yl)-6-(1H-pyrazol-4-yl)picolinamide] | 36 | 3
2 | CC(C)N1CCC(c2cc(NC(=O)c3cccc(-c4cn[nH]c4)n3)n(-c3ccccn3)n2)CC1 [Compound 003, N-(3-(1-isopropylpiperidin-4-yl)-1-(pyridin-2-yl)-1H-pyrazol-5-yl)-6-(1H-pyrazol-4-yl)picolinamide] | 66 | 6
3 | Cc1ccc(-n2nc(C3CCN(C(C)C)CC3)cc2NC(=O)c2ccccn2)nc1 [Compound 009, N-(3-(1-isopropylpiperidin-4-yl)-1-(5-methylpyridin-2-yl)-1H-pyrazol-5-yl)picolinamide] | 1650 | 55
4 | CC(C)N1CCC(c2cc(NC(=O)c3ccccn3)n(-c3ccccn3)n2)CC1 [Compound 010, N-(3-(1-isopropylpiperidin-4-yl)-1-(pyridin-2-yl)-1H-pyrazol-5-yl)picolinamide] | 1100 | 43
5 | CNC(=O)Cn1cc(-c2cccc(C(=O)Nc3cc(C4CCN(C(C)C)CC4)nn3-c3ccc(C)cn3)n2)cn1 [Compound 014, N-(3-(1-isopropylpiperidin-4-yl)-1-(5-methylpyridin-2-yl)-1H-pyrazol-5-yl)-6-(1-(2-(methylamino)-2-oxoethyl)-1H-pyrazol-4-yl)picolinamide] | 656 | 36
6 | Cc1ccc(-n2nc(C3CCN(C(C)C)CC3)cc2NC(=O)c2cccc(C#N)n2)nc1 [Compound 017, 6-cyano-N-(3-(1-isopropylpiperidin-4-yl)-1-(5-methylpyridin-2-yl)-1H-pyrazol-5-yl)picolinamide] | 90 | 9
7 | CC(C)N1CCC(c2cc(NC(=O)c3cccc(CCC(N)=O)n3)n(-c3ccccn3)n2)CC1 [Compound 019, 6-(3-amino-3-oxopropyl)-N-(3-(1-isopropylpiperidin-4-yl)-1-(pyridin-2-yl)-1H-pyrazol-5-yl)picolinamide] | 242 | 47
8 | CC(C)N1CCC(c2cc(NC(=O)c3cccc(N4CCNCC4)n3)n(-c3ccccn3)n2)CC1 [Compound 020, N-(3-(1-isopropylpiperidin-4-yl)-1-(pyridin-2-yl)-1H-pyrazol-5-yl)-6-(piperazin-1-yl)picolinamide] | 10000 | 561

The remaining molecules from weak to strong by IC50 (IRAK1), led by results:

Row | IC50 (IRAK1) [nM] | IC50 (IRAK4) [nM] | SMILES
9 | 1350 | 148 | Cc1ccc(-n2nc(C3CCN(C4COC4)CC3)cc2NC(=O)c2ccccn2)nc1 [Compound 008, N-(1-(5-methylpyridin-2-yl)-3-(1-(oxetan-3-yl)piperidin-4-yl)-1H-pyrazol-5-yl)picolinamide]
10 | 835 | 170 | Cc1ccc(-n2nc(C3CCN(C)CC3)cc2NC(=O)c2ccccn2)nc1 [Compound 011, N-(3-(1-methylpiperidin-4-yl)-1-(5-methylpyridin-2-yl)-1H-pyrazol-5-yl)picolinamide]
11 | 828 | 39 | CC(C)N1CCC(c2cc(NC(=O)c3cccc(-c4cnn(CC(N)=O)c4)n3)n(-c3ccccn3)n2)CC1 [Compound 016, 6-(1-(2-amino-2-oxoethyl)-1H-pyrazol-4-yl)-N-(3-(1-isopropylpiperidin-4-yl)-1-(pyridin-2-yl)-1H-pyrazol-5-yl)picolinamide]
12 | 718 | 45 | Cc1ccc(-n2nc(C3CCN(C(C)C)CC3)cc2NC(=O)c2cccc(-c3cnn(CC(=O)N(C)C)c3)n2)nc1 [Compound 013, 6-(1-(2-(dimethylamino)-2-oxoethyl)-1H-pyrazol-4-yl)-N-(3-(1-isopropylpiperidin-4-yl)-1-(5-methylpyridin-2-yl)-1H-pyrazol-5-yl)picolinamide]
13 | 372 | 24 | Cc1ccc(-n2nc(C3CCN(C(C)C)CC3)cc2NC(=O)c2cccc(-c3cnsc3)n2)nc1 [Compound 004, N-(3-(1-isopropylpiperidin-4-yl)-1-(5-methylpyridin-2-yl)-1H-pyrazol-5-yl)-6-(isothiazol-4-yl)picolinamide]
14 | 317 | 31 | CC(C)N1CCC(c2cc(NC(=O)c3cccc(-c4cnoc4)n3)n(-c3ccccn3)n2)CC1 [Compound 007, N-(3-(1-isopropylpiperidin-4-yl)-1-(pyridin-2-yl)-1H-pyrazol-5-yl)-6-(isoxazol-4-yl)picolinamide]
15 | 234 | 24 | CC(C)N1CCC(c2cc(NC(=O)c3cccc(/C=C/C(N)=O)n3)n(-c3ccccn3)n2)CC1 [Compound 018, (E)-6-(3-amino-3-oxoprop-1-en-1-yl)-N-(3-(1-isopropylpiperidin-4-yl)-1-(pyridin-2-yl)-1H-pyrazol-5-yl)picolinamide]
16 | 183 | 37 | CC(C)N1CCC(c2cc(NC(=O)c3cccc(-c4cnsc4)n3)n(-c3ccccn3)n2)CC1 [Compound 005, N-(3-(1-isopropylpiperidin-4-yl)-1-(pyridin-2-yl)-1H-pyrazol-5-yl)-6-(isothiazol-4-yl)picolinamide]
17 | 15 | 6 | Cc1ccc(-n2nc(C3CCN(C(C)C)CC3)cc2NC(=O)c2cccc(-c3cnoc3)n2)nc1 [Compound 006, N-(3-(1-isopropylpiperidin-4-yl)-1-(5-methylpyridin-2-yl)-1H-pyrazol-5-yl)-6-(isoxazol-4-yl)picolinamide]
18 | 8 | 4 | CN1CCC(c2cc(NC(=O)c3cccc(-c4ccn[nH]4)n3)n(-c3ccccn3)n2)CC1 [Compound 001, N-(3-(1-Methylpiperidin-4-yl)-1-(pyridin-2-yl)-1H-pyrazol-5-yl)-6-(1H-pyrazol-5-yl)picolinamide]
19 | 7 | 3 | Cc1ccc(-n2nc(C3CCN(C(C)C)CC3)cc2NC(=O)c2cccc(-c3ccn[nH]3)n2)nc1 [Compound 012, N-(3-(1-isopropylpiperidin-4-yl)-1-(5-methylpyridin-2-yl)-1H-pyrazol-5-yl)-6-(1H-pyrazol-5-yl)picolinamide]
